Results taken from patent US11820782B2, “Salt forms of amino pyrazine purine based selective kinase inhibitor” (FTG BIO LLC, priority 2018, dated 2023).
In brackets after ≈: the same amount, converted by molar mass.

How the values were obtained:
[1] = Qualitative (kinetic/visual) solubility in solvents/media; assay type: physicochemical
Procedure: 2 mg quantity of API was taken in glass vial and small portions of solvent was added with vortexing till the clear solution is obtained (at room temperature or heating up to 50-60° C.).
Weighed quantity of API was taken in glass vial and small portions of solvent was added with vortexing till the clear solution is obtained (at room temperature or heating up to 50-60° C.).

[2] = Equilibrium solubility in pH 6.8 0.01M phosphate buffer by HPLC; assay type: physicochemical; conditions: pH6.8 0.01M potassium dihydrogen phosphate buffer, listed as Free base of FT-1518
[3] = 1 week stability of shortlisted salts at 40° C./75% RH, open; assay type: physicochemical; conditions: after 7 days at 40° C./75% RH, open
[4] = pH vs solubility study (RP-HPLC); assay type: physicochemical; conditions: listed as Free base
Procedure: In 2 mL volume of buffers (ranging from pH 1.2 to 7.4) and purified water, compound (either free base or esylate or oxalate) was added with increments until the compound doesn't dissolve further in the medium and compound remains undissolved or excess in the solution. The samples were kept for overnight at ambient room temperature to saturate/equilibrate. The dispersions were filtered through 0.45 μm PVDF or nylon membrane filters and the filtrates were analysed using RP-HPLC for determination of solubility of compounds in various buffers and purified water.

[5] = Hygroscopicity (dynamic vapor sorption); assay type: physicochemical
Procedure: Sorption isotherms were obtained using a VTI-SA+-moisture sorption analyzer from TA instruments. The sample temperature was maintained at 25° C. by the instrument controls. The humidity was controlled by mixing the streams of dry and wet nitrogen, with a total flow rate of 200 mL/minute. The weight change of the sample as a function of % RH was constantly monitored by microbalance.
Typically, 5 to 20 mg of the sample was weighed under ambient conditions in a tared mesh stainless steel basket. The sample was loaded and unloaded at 40% RH and 25° C. A moisture sorption isotherm was performed as outlined. The standard isotherm was performed at 25° C. at 10% RH intervals over a 0 to 90% RH range. Sample was dried at 40° C. from ambient room conditions to 0% RH.

[6] = Intravenous and per oral pharmacokinetics in male Balb/c mice; assay type: in vivo
Procedure: The husbandry conditions were maintained as described in animal facility SOPs during the study period. Animals procured were quarantined for 7 days followed by acclimatization for 5 days. The study was carried out for two days. Male Balb/c mice of age 10-12 weeks (18-25 g) and male Sprague Dawley rats 8-10 weeks (220-280 g) were used. The food was with held for a period of 4-12 hr prior to dosing and returned to all animals 4h post dosing and water supplied ad libitum. The doses of FT1518 were as follows: Mice: 10 mg/kg intravenous (i.v) and 50 mg/kg oral (p.o); rat—5 mg/kg intravenous (i.v) and 10 mg/kg oral (p.o). The formulation used in i.v and p.o studies were 10% dimethylsulfoxide (DMSO)+30% polyethyleneglycol 400 (PEG400)+60% water and 0.5% methylcellulose (MC)+0.1% tween 80. Blood was collected at the predetermined time points in mice (cardiac puncture) and Jugular vein (rats) over a period of 24h in eppendorf tubes containing K2EDTA as anticoagulant. The plasma was isolated from the blood and stored at −80° C. until bioanalysis. Species: BALB/C mice Gender: Male Dose: IV (10 mg/kg), Single dose • PO (50 mg/kg), single dose Formulation: • IV—DMSO: PEG400:Water (10:30:60 v/v) • PO— 0.5% methylcellulose and 0.1% Tween 80 in water Sampling Time Points: • IV: 5 min, 30 min, 1 h, 2, 4, 8 and 24 h post dose • PO: 10 min, 30 min, 1 h, 2, 4, 8 and 24 h post dose. PK analysis: Phoenix software (Pharsight product). Noncompartmental Analysis (NCA) was used to estimate the PK parameters. FIG. 56 depicts a pharmacokinetic profile of FT-1518 base in mice. Table 31 summarizes PK parameters used in a pharmacokinetic profile with intravenous dose in mice and Table 32 summarizes PK parameters used in a pharmacokinetic profile with per oral dose in mice.

[7] = Microsomal stability, MLM; assay type: in vitro ADME; conditions: 3 μM (n = 3), mice liver microsomes
Procedure: (§1) All in vitro experiments like protein binding, microsomal stability, cell cytotoxicity were performed as per study protocols of respective experiments.

[8] = Microsomal stability, PHLM; assay type: in vitro ADME; conditions: pooled human liver microsomes
Procedure: as §1

[9] = Microsomal stability, RLM; assay type: in vitro ADME; conditions: rat liver microsomes
Procedure: as §1

Human Plasma = assay: Plasma protein binding, human; assay type: in vitro ADME
Procedure: as §1

[10] = tested on: MDA-MB-231 (breast cancer); assay: Anti-proliferative effect, MDA-MB-231; assay type: cell-based
Procedure: as §1

[11] = tested on: U-87 (giloblastoma, epithelial); assay: Anti-proliferative effect, U-87; assay type: cell-based
Procedure: as §1

[12] = IV dose (10 mg/kg), single dose, male Balb/c mice
[13] = PO dose (50 mg/kg), single dose, male Balb/c mice, 50 mg/kg

Q: Which “solubility (descriptive term)” value ([1]; 0.11N HCl) does the source give for `CCC(CC)n1cnc2c(-c3cnc(N)cn3)nc(N3CC4CCC(C3)O4)nc21` [FT-1518 base] here?
A: soluble

Q: And the Solubility ([1]; 1,4-dioxane)?
A: >100000 µg/mL

Q: What about the “solubility (descriptive term)” value ([1]; 1,4-dioxane) of the same compound?
A: freely soluble

Q: What about the Solubility ([1]; Dimethyl sulphoxide) of the same compound?
A: >100000 µg/mL

Q: What about the “solubility (descriptive term)” value ([1]; Dimethyl sulphoxide) of the same compound?
A: freely soluble

Q: What about the Solubility ([1]; N,N-dimethyl acetamide) of the same compound?
A: >100000 µg/mL

Q: And the “solubility (descriptive term)” value ([1]; N,N-dimethyl acetamide)?
A: freely soluble

Q: And the Solubility ([1]; N-methyl pyrrolidone)?
A: >100000 µg/mL

Q: What about the “solubility (descriptive term)” value ([1]; N-methyl pyrrolidone) of the same compound?
A: freely soluble

Q: What about the Solubility ([1]; Purified water) of the same compound?
A: <1000 µg/mL

Q: What about the Solubility ([1]; Tetrahydrofuran) of the same compound?
A: >100000 µg/mL

Q: What about the “solubility (descriptive term)” value ([1]; Tetrahydrofuran) of the same compound?
A: freely soluble

Q: What about the “solubility (descriptive term)” value ([1]; acetone) of the same compound?
A: freely soluble

Q: What about the “solubility (descriptive term)” value ([1]; acetonitrile) of the same compound?
A: soluble

Q: And the Solubility ([1]; dichloromethane)?
A: >100000 µg/mL

Q: What about the “solubility (descriptive term)” value ([1]; dichloromethane) of the same compound?
A: freely soluble

Q: What about the Solubility ([1]; diethyl ether) of the same compound?
A: <1000 µg/mL

Q: What about the “solubility (descriptive term)” value ([1]; diethyl ether) of the same compound?
A: insoluble

Q: And the Solubility ([1]; ethanol)?
A: >100000 µg/mL

Q: What about the “solubility (descriptive term)” value ([1]; ethanol) of the same compound?
A: freely soluble

Q: And the “solubility (descriptive term)” value ([1]; ethyl acetate)?
A: soluble

Q: What about the “solubility (descriptive term)” value ([1]; isopropyl acetate) of the same compound?
A: soluble

Q: What about the “solubility (descriptive term)” value ([1]; isopropyl alcohol) of the same compound?
A: freely soluble

Q: And the Solubility ([1]; methanol)?
A: >100000 µg/mL

Q: And the “solubility (descriptive term)” value ([1]; methanol)?
A: freely soluble

Q: What about the “solubility (descriptive term)” value ([1]; methyl tertiary butyl ether) of the same compound?
A: slightly soluble

Q: And the Solubility ([1]; n-heptane)?
A: <1000 µg/mL

Q: What about the “solubility (descriptive term)” value ([1]; n-heptane) of the same compound?
A: insoluble

Q: What about the Solubility ([1]; n-hexane) of the same compound?
A: <1000 µg/mL

Q: And the “solubility (descriptive term)” value ([1]; n-hexane)?
A: insoluble

Q: What about the “solubility (descriptive term)” value ([1]; purified water, listed as FT1518) of the same compound?
A: practically insoluble

Q: And the “solubility (descriptive term)” value ([1]; purified water, listed as FT-1518)?
A: insoluble

Q: What about the “solubility (descriptive term)” value ([1]; toluene) of the same compound?
A: soluble

Q: What about the “Solubility in pH 6.8 buffer” value [2] of the same compound?
A: 0.02 mg/mL

Q: What about the “% purity” value ([3]; HPLC) of the same compound?
A: 97.82%

Q: And the XRD ([3]; physical form vs initial)?
A: Same as initial form

Q: And the Solubility ([4]; Water, overnight, ambient room temperature)?
A: 120 µg/mL (≈ 0.304 mM)

Q: And the Solubility ([4]; pH 1.2 HCl)?
A: >50250 µg/mL

Q: What about the Solubility ([4]; pH 3.0 Citrate buffer) of the same compound?
A: 2110 µg/mL (≈ 5.35 mM)

Q: What about the Solubility ([4]; pH 4.0 Acetate buffer) of the same compound?
A: 340 µg/mL (≈ 0.862 mM)

Q: What about the Solubility ([4]; pH 5.0 Acetate buffer) of the same compound?
A: 140 µg/mL (≈ 0.355 mM)

Q: And the Solubility ([4]; pH 6.8 Phosphate buffer)?
A: 110 µg/mL (≈ 0.279 mM)

Q: What about the Solubility ([4]; pH 7.4 Phosphate buffer) of the same compound?
A: 100 µg/mL (≈ 0.253 mM)

Q: What about the hygroscopicity ([5]; normal room temperature / ambient conditions) of the same compound?
A: non-hygroscopic

Q: What about the hygroscopicity ([5]; sorption cycle 0 to 95% RH at 25° C.) of the same compound?
A: slightly hygroscopic. As there was no

Q: What about the moisture uptake ([5]; up to 70% RH, 25° C.) of the same compound?
A: There was about <2% moisture uptake up

Q: And the “clearance as % of mouse liver blood flow” value ([6]; IV 10 mg/kg, mice)?
A: ~30%

Q: And the “AUC0-∞” value [6, 12]?
A: 7637 ± 2021 ng·h/mL

Q: And the “Cl” value [6, 12]?
A: 23.3 ± 8.3 mL/min/kg

Q: And the “Bioavailability (% F)” value ([6]; PO dose (50 mg/kg) vs IV 10 mg/kg, male Balb/c mice)?
A: 68 % F

Q: And the “AUC0-∞” value [6, 13]?
A: 25801 ± 404 ng·h/mL

Q: And the Cmax [6, 13]?
A: 8761 ± 718 ng/mL

Q: What about the Tmax [6, 13] of the same compound?
A: 12 min

Q: And the “Invitro T1/2, MLM” value [7]?
A: 43 min

Q: What about the “Invitro T1/2, PHLM” value ([8]; 3 μM (n = 3)) of the same compound?
A: >60 min

Q: And the “stability in PHLM” value [8]?
A: ✓ FT1518, FT 1518-Esylate and FT1518-Oxalate was highly stable in PHLM and RLM

Q: What about the “Invitro T1/2, RLM” value ([9]; 3 μM (n = 3)) of the same compound?
A: >60 min

Q: And the “stability in RLM” value [9]?
A: ✓ FT1518, FT 1518-Esylate and FT1518-Oxalate was highly stable in PHLM and RLM

Q: What about the “plasma protein binding, human plasma” value (Human Plasma) of the same compound?
A: ✓ FT1518, FT1518-Esylate and FT1518-Oxalate showed moderate plasma protein binding in both mouse and human plasma

Q: What about the “% Bound, Human Plasma” value (Human Plasma; 10 μM (n = 4)) of the same compound?
A: 97.32%

Q: And the IC50 [10]?
A: > 30 µM

Q: And the IC50 [11]?
A: > 10 µM
